“And” between values parts separate entries of the source, which are not always exact repeats. Equal values may be shown once. Where a name gives a salt, the structure may show the parent alone. Read-outs that look alike come from different tables or passages of the source.
How the values were obtained:
[1] = target: SARS-CoV-2 spike RBD-ACE2 interaction (Homo sapiens, UniProt Q9BYF1); assay: biochemical; assay type: binding; conditions: for IC50: IC50 Biosensor
LATS biosensor = assay type: binding; conditions: 4 μM
wild-type nanoluciferase = wild-type nanoluciferase (Oplophorus gracilirostris, UniProt Q9GV45, A31E/A60N/A81I/F95D/I117V/K70R/L54V/L99Q/M102K/N193R/P142E/Q151K/Q38R/Q45L/V71I/Y165I); assay type: biochemical; conditions: 4 μM
[2] = test system: SARS-CoV-2-Spike pseudotyped vesicular stomatitis virus (VSV-GFP-Spike); assay type: cell-based
COVID-19 = conditions: cited from earlier work
[3] = target: RBD of SARS-CoV (2002)-ACE2 interaction (Homo sapiens, UniProt Q9BYF1); assay: biochemical; assay type: binding
[4] = target: S1 domain of SARS-CoV-2 spike-ACE2 interaction (Homo sapiens, UniProt Q9BYF1); assay type: binding
wild-type VSV-GFP = assay type: cell-based
[5] = test system: fusion between spike and ACE2 (HEK293T cells); assay type: cell-based
recombinant sACE2 = recombinant sACE2 (Homo sapiens, UniProt Q9BYF1); assay type: binding
[6] = test system: SARS-CoV-2 (strain 291.3 FR-4286); assay type: cell-based
SARS-CoV-2 = assay type: cell-based
[7] = test system: SARS-CoV-2 VOCs (Alpha, Beta, Delta, cluster5); assay type: cell-based
VSV-Spike (strain 2) = conditions: mouse, in vivo
[8] = test system: SARS-CoV-2 (FR-4286 strain); parameters: species or system K18-hACE2 mice; conditions: mouse, in vivo
Recombinant ACE2 = Recombinant ACE2 (Homo sapiens, UniProt Q9BYF1)
[9] = mouse, in vivo
[10] = in vivo, 0.016 mg/kg; cited from earlier work
[11] = rabbit, in vivo; cited from earlier work
[12] = method B, newly purchased drugs, 2–25 μM, Figure 2D
[13] = Prestwick library screen, 4 μM, compound added to LgBiT-RBD, then SmBiT-ACE2
[14] = Prestwick library screen, 4 μM, compound added to pre-formed RBD:ACE2 complex
[15] = read-out: inhibition of bioreporter signal, SARS-CoV RBD/ACE2, both methods

Sequence of RBD of SARS-CoV (2002)-ACE2 interaction (Q9BYF1 18-740 limits assumed): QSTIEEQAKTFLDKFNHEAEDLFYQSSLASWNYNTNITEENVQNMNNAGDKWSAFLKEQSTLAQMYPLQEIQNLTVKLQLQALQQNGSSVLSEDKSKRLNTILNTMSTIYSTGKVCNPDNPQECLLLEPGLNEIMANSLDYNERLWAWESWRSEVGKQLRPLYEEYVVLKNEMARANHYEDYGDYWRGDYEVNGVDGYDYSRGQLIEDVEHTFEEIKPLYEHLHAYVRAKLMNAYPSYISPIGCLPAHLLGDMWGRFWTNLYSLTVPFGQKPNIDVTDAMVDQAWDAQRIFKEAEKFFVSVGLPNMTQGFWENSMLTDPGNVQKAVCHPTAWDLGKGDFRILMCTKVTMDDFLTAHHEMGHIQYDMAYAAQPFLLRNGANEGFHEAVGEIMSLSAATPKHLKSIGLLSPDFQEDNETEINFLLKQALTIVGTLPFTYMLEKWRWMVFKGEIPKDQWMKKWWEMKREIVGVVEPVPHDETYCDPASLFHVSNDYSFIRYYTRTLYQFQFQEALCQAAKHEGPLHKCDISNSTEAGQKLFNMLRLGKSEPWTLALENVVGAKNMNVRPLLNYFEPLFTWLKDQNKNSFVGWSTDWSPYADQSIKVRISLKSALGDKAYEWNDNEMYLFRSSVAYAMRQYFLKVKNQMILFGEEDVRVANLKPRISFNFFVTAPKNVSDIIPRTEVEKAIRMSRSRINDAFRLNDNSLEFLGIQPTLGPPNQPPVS
Sequence of SARS-CoV-2 spike RBD-ACE2 interaction (Q9BYF1 18-740): as the sequence (Q9BYF1 18-740 limits assumed) above
Sequence of Recombinant ACE2 (Q9BYF1 18-805): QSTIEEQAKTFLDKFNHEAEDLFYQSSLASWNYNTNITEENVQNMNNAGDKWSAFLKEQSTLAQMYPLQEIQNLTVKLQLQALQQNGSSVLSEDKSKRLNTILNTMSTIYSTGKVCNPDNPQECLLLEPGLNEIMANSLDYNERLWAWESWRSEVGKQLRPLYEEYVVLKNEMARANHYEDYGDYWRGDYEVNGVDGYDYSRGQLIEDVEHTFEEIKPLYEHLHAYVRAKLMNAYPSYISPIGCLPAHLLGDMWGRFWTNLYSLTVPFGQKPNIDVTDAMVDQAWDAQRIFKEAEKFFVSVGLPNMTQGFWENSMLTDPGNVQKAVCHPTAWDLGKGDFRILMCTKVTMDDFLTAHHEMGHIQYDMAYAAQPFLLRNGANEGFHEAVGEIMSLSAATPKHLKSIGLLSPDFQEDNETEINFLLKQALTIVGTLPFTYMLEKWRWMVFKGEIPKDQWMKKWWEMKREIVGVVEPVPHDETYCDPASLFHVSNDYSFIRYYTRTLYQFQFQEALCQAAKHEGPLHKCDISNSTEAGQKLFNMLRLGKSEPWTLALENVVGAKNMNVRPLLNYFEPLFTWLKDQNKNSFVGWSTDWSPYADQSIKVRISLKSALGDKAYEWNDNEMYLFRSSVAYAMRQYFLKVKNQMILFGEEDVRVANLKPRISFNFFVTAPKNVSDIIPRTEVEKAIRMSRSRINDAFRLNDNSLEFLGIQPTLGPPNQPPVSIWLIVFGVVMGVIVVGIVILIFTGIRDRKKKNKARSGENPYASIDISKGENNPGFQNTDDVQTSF
Sequence of S1 domain of SARS-CoV-2 spike-ACE2 interaction (Q9BYF1 18-740): as the sequence (Q9BYF1 18-740 limits assumed) above
Sequence of recombinant sACE2 (Q9BYF1 19-607): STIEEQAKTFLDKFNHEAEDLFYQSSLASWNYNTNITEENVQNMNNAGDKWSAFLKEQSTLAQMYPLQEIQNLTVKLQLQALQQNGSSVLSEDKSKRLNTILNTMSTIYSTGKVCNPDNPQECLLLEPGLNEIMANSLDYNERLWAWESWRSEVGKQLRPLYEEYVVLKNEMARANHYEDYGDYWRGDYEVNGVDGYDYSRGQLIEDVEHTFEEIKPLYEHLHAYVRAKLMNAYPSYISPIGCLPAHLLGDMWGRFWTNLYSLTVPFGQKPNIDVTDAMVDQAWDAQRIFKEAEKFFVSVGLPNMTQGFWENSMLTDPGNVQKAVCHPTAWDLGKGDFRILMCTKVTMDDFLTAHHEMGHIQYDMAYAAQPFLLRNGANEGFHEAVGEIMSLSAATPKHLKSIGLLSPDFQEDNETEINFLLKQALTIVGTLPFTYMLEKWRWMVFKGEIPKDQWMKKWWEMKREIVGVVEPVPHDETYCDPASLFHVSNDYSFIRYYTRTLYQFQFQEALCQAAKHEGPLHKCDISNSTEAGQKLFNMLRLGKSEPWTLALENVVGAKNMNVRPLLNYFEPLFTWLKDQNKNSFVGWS

## COc1cc(N)c(Cl)cc1C(=O)NC1CCN(CCCOc2ccc(F)cc2)CC1OC (stereo not drawn) [cisapride]
[1]; [12]
  IC50: 16.5 µM
LATS biosensor
  reduction in luminescence with the LATS biosensor: −13%
wild-type nanoluciferase
  reduction in luminescence with nanoluciferase on its own: not nanoluciferase on its own
[2]
  effect on VSV infection: did not affect VSV infection at all concentrations tested
VeroE6 and VeroAT cells; VeroE6 / VeroAT, 48 h
  toxic at doses of more than: more than 20 μM

## Clc1ccc(COC(Cn2ccnc2)c2ccc(Cl)cc2Cl)cc1 (stereo not drawn) [econazole nitrate, econazole nitrate salt]
[1]; [13]
  reduction in bioreporter signal, method B: −23%
[1]; [14]
  reduction in bioreporter signal, method A: −36%

## CCC(C)n1ncn(-c2ccc(N3CCN(c4ccc(OCC5COC(Cn6cncn6)(c6ccc(Cl)cc6Cl)O5)cc4)CC3)cc2)c1=O (stereo not drawn) [itraconazole]
COVID-19; administered orally, clinical study
  efficacy in hospitalized individuals: no efficacy

## Clc1ccccc1C(c1ccccc1)(c1ccccc1)n1ccnc1 [clotrimazole]
[1]; [14]
  reduction in bioreporter signal, method A: −21%

## C#C[C@]1(O)CC[C@H]2[C@@H]3CCc4cc(O)ccc4[C@H]3CC[C@@]21C [ethynylestradiol, 17a-ethynylestradiol]
[1]; [12]
  IC50: 2.6 µM
[3]; [15]
  inhibition at 4 µM: 3 to 6%

## CCOC1O[C@H]([C@@H](COCc2ccccc2)OCc2ccccc2)[C@H](OCc2ccccc2)[C@H]1O (stereo partly drawn) [tribenoside]
[1]; [13]
  reduction in bioreporter signal, method B: −9%
[1]; [14]
  reduction in bioreporter signal, method A: −21%

## CC(=O)N1CCN(c2ccc(OCC3COC(Cn4ccnc4)(c4ccc(Cl)cc4Cl)O3)cc2)CC1 (stereo not drawn) [ketoconazole]
[1]; method B, imidazole comparison, Figure 3B
  IC50: 14.5 µM
[1]; [14]
  reduction in bioreporter signal, method A: −29%
[2]
  concentration giving spike-specific reduction in viral growth: ~80 µM

## COC(=O)C1=C(C)NC(C)=C(C(=O)OCCN(C)Cc2ccccc2)C1c1cccc([N+](=O)[O-])c1 (stereo not drawn) [nicardipine, nicardipine HCl]
[1]; [12]
  IC50: 1.9 µM
[3]; [15]
  inhibition at 4 µM: 3 to 6%

## CC(C)C(=O)OC[C@H]1O[C@@H](n2ccc(NO)nc2=O)[C@H](O)[C@@H]1O [Molnupiravir]
COVID-19; oral treatment, clinical
  reduction of hospitalization or death: 50%

## c1ccc(-c2ccc(C(c3ccccc3)n3ccnc3)cc2)cc1 (stereo not drawn) [bifonazole]
[1]
  bioreporter complementation, pre-treatment of ACE2 followed by RBD: complete abrogation of bioreporter complementation and luminescence
  concentration inhibiting WT ACE2 binding to the RBD to similar levels as αRBD: 3.29 µM
  reduction in bioreporter signal, method A: −46%
  reduction in bioreporter signal, method B: −51%
  IC50: 1.3 µM and 1.6 µM
[1]; read-out: peak inhibition, pre-treatment of RBD followed by ACE2
  inhibition at 4 µM: 50%
[1]; read-out: signal inhibition
  inhibition at 3.29 µM: 80%
[4]
  reduction in binding, ACE2 and S1 domain of spike: ~30%
[3]; read-out: inhibition of luminescence, SARS-CoV RBD/ACE2, method A
  inhibition at 4 µM: 45%
[3]; read-out: inhibition of luminescence, SARS-CoV RBD/ACE2, method B
  inhibition at 4 µM: 22%
[2]
  VSV-Spike plaque size: reduction in VSV-Spike plaque size
  concentration giving spike-specific reduction in viral growth: ~35 µM
  immunofluorescent VSV staining, spike-pseudotyped VSV strains: complete abrogation of VSV staining
  viral entry of pseudotyped VSV-Spike: significant impairment in viral entry
wild-type VSV-GFP
  WT VSV infection (entry): largely unaffected
  WT VSV plaque size: no effect on WT VSV
[5]
  fusion of ACE2- and ACE2/TMPRSS2-expressing cells with spike-expressing HEK293T cells: dose-dependent reduction in fusion
Recombinant sACE2
  effect on sACE2 unfolding by urea: stabilizes sACE2
[6]
  spike protein levels (immunoblotting): dramatic reduction in spike protein levels
  viral burden by TCID50 assay: reduced
  viral mRNA levels (qPCR): significant reduction in viral mRNA levels
SARS-CoV-2
  viral mRNA and infectious particles (TCID50): reduction in viral mRNA as well as infectious particles
[7]
  viral RNA levels of VOCs: significant reduction in output of the VOCs
VSV-Spike (strain 2)
  reduction in pY705-Stat3 in the lungs: ~50%
  reduction of lethality: 40%
  survival: 2 of 5
  survival of challenged mice: 40%
  viral load in lungs by qRT-PCR: significant reduction in viral load
[8]
  survival: 8 of 11
  weight after infection: lost less weight
VeroE6 and VeroAT cells; African green monkey
  concentration up to which no overt toxicity: up to 100 μM
Recombinant ACE2
  inhibition of ACE2 enzymatic activity: does not involve inhibition of ACE2 enzymatic activity
VeroE6-hTMPRSS2 cells
  effect on viability: no effect on viability at the antiviral dose tested
A549-hACE2 cells
  effect on cell viability: no effect on cell viability at the dose tested
[9]
  tolerability: well tolerated
[10]
  half-life (t1/2), first phase of biphasic elimination: 7 h
  half-life (t1/2), second phase of biphasic elimination: 42 h
[11]
  oral doses that could result in embryotoxicity: > 30 mg/kg
